SMILES strings stand for the structures.

The target of the assay is T1, VLA-4 (Homo sapiens, UniProt P05556+P13612).
T1 construct: endogenous in cells; host or cells: Jurkat cells
T1 sequence (P13612 34-1032): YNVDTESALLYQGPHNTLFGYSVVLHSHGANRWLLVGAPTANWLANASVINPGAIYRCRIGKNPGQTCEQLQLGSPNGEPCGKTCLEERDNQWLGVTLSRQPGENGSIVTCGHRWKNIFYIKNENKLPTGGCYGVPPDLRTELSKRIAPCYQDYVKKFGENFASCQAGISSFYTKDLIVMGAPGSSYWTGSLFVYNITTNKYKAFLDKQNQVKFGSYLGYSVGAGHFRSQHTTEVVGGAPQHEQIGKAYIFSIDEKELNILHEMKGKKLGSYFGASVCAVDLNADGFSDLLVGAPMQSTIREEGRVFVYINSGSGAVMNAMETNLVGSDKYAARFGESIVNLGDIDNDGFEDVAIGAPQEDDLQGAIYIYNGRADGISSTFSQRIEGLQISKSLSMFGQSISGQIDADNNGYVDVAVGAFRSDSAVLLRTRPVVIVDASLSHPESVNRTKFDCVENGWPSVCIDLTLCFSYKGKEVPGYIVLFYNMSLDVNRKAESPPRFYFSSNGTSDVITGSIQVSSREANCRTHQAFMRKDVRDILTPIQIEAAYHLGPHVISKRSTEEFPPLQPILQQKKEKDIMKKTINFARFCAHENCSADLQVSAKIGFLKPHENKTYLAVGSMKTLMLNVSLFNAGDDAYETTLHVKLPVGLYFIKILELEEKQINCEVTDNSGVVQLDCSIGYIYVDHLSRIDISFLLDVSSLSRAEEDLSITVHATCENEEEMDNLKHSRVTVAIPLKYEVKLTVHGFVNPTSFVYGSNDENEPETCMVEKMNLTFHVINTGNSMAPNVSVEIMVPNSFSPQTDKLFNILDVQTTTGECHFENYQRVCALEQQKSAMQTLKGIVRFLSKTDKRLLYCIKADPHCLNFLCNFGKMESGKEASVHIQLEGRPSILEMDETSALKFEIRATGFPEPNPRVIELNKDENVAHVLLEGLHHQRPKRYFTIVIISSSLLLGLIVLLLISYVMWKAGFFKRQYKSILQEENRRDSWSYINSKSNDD
T1 sequence (P05556 21-798): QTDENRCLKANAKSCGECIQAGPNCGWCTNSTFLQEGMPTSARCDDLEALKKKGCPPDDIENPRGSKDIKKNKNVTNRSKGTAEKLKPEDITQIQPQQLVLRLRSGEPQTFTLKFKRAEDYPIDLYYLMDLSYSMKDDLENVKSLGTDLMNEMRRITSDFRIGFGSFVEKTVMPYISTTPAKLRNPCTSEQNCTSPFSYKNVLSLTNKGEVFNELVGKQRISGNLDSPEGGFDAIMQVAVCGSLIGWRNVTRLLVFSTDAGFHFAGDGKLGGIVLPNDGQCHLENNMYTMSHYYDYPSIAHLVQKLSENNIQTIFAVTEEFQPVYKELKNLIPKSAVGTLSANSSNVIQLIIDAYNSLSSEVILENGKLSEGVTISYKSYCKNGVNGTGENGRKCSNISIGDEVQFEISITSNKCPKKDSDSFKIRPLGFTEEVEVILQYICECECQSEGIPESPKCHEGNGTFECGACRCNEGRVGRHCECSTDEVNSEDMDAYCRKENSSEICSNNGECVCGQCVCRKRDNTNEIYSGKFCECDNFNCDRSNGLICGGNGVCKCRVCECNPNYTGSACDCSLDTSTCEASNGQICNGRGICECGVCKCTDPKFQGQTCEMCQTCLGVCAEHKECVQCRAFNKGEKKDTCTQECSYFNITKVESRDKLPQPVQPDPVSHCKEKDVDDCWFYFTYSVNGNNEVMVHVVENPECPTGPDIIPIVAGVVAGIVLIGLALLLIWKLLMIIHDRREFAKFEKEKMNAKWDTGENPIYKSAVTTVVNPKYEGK
Briefly: VLA-4 direct binding assay (VCAM-IgG alkaline phosphatase conjugate binding to Jurkat cells). The following applies: Table 1, Structure-Activity; assay and unit inferred; read-out: Act. From the text: A direct binding assay may also be employed to quantitate the inhibitory activity of the compounds of this invention. (“DBA”) In direct binding assays, for example, a VCAM-IgG fusion protein containing the first two immunoglobulin domains of VCAM (D1D2) attached above the hinge region of an IgG1 molecule (“VCAM 2D-IgG”), is conjugated to a marker enzyme, such as alkaline phosphatase (“AP”). The synthesis of this VCAM-IgG fusion is described in PCT publication WO 90/13300, the disclosure of which is herein incorporated by reference. The conjugation of that fusion to a marker enzyme can be achieved by cross-linking methods well-known in the art.
The VCAM-IgG enzyme conjugate is then placed in the wells of a multi-well filtration plate, such as that contained in the Millipore Multiscreen Assay System (Millipore Corp., Bedford, Mass.). Varying concentrations of the test inhibitory compound are then added to the wells followed by addition of VLA-4-expressing cells. The cells, compound and VCAM-IgG enzyme conjugate are mixed together and allowed to incubate at room temperature.
Following incubation, the wells are vacuum drained, leaving behind the cells and any bound VCAM. Quantitation of bound VCAM is determined by adding an appropriate calorimetric substrate for the enzyme conjugated to VCAM-IgG and determining the amount of reaction product. Decreased reaction product indicates increased binding inhibitory activity. The protocol is described more specifically below:
1. Block a 96 well Millipore Multiscreen Assay System filtration plate^1 with 200:l/well of blocking buffer (1×Phosphate Buffered Saline, 0.1%Tween 20, 1%BSA) for at least 1 hour at room temperature.
2. Drain the plate with the vacuum manifold, and wash with 200 μl/well of assay buffer (Tris Buffered Saline, 0.1% BSA, 2 mM glucose, 10 mM HEPES, pH 7.5) draining the plate in between. Repeat twice. Then blot the plate bottom on paper to remove excess buffer.
3. Prepare a 4 μg/ml VCAMIg-AP solution (Alkaline phosphatase coupled to VCAMIg) in assay buffer and filter with a 0.2:low protein binding syringe filter (Gelman Sciences #4454). From this stock, prepare a 0.4 μg/ml working solution of VCAMIg-AP in assay buffer. Add 25:l of 0.4 μg/ml VCAMIg-AP to every well.
5. Prepare dilutions of compounds to be tested in assay buffer. Concentrations should be 4× the desired final concentration and run in triplicate. Add 25 μl of the compound dilutions to designated wells.
7. Jurkat cells are centrifuged to remove cell culture media and washed once in assay buffer. Resuspend the washed Jurkat cells to a concentration of 8×10^6/ml in assay buffer containing 2 mM MnCl2. Pipeting the mixture up and down to ensure a uniform cell suspension. Add 50:l of cell suspension to each well except the NSB wells.
8. Gently tap the sides of the plate to mix well contents. Incubate the plate for 60 minutes at room temperature (RT).
9. Place the plate on the vacuum manifold to drain the well contents. Wash twice with 100 μl/well of wash buffer (assay buffer containing 1 mM MnCl2). Drain the plate and blot on paper towels.
10. Add 10 mg/ml of 4-Nitro phenyl phosphate to Substrate buffer (0.1M glycine, 1 mM ZnCl2, 1 mM MgCl2, pH 10.5). Add 100 μl/well and incubate for exactly 30 minutes at RT.
11. To stop the reaction, add 100 μl/well of 3N NaOH.
12. Read the 96-well plate in a Molecular Devices ELISA platereader at 405 nm. Analyze data with SoftMax software.
`COc1cccc(C(=O)N(CCC(=O)O)CC(=O)N(CCC(C)C)CC(=O)Nc2ccc3c(c2)C(=O)CCCC3)c1` [AX3]: the IC50 is 15300 nM. `COc1cccc(C(=O)N(CCC(=O)O)CC(=O)N(CCC(C)C)CC(=O)Nc2ccc(-n3cnc(Cl)c3Cl)cc2)c1` [AX4]: the IC50 came out at 15200 nM. As to `COc1cccc(C(=O)N(CCC(=O)O)CC(=O)N(CCC(C)C)CC(=O)Nc2ccc(-c3nnc(-c4ccccc4)o3)cc2)c1` [AX5], the IC50 turned out to be 35 nM. As to `CSCCCN(CC(=O)Nc1ccccc1)C(=O)CN(CCC(=O)O)C(=O)c1ccccc1` [AX6], the IC50 stood at 13500 nM.

For `COc1ccc(C(=O)N(CCC(=O)O)CC(=O)N(CCC(C)C)CC(=O)Nc2ccccc2)cc1` [AX7], the IC50 was found to be 11500 nM.

For the molecule `COc1cccc(C(=O)N(CCC(=O)O)CC(=O)N(CCC(C)C)CC(=O)Nc2ccc(N3CCOCC3)c(Cl)c2)c1` [AX9], the IC50 is 7380 nM. Next, `CC(C)CCN(CC(=O)Nc1ccccc1)C(=O)CN(CCC(=O)O)C(=O)c1ccccc1` [AX12]: 4120 nM; `COc1cccc(C(=O)N(CCC(=O)O)CC(=O)N(CCC(C)C)CC(=O)Nc2cccc(OCCOc3ccccc3)c2)c1` [AX13]: 3160 nM; `COc1cccc(C(=O)N(CCC(=O)O)CC(=O)N(CCC(C)C)CC(=O)Nc2cccc(C(=O)CC(=O)Nc3nccs3)c2)c1` [AX15]: 2410 nM. Consider `COc1cccc(C(=O)N(CCC(=O)O)CC(=O)N(CCC(C)C)CC(=O)Nc2ccc(NC(=O)c3cc4ccccc4cn3)cc2)c1` [AX16], for which the IC50 worked out at 2840 nM. Regarding `COc1cccc(C(=O)N(CCC(=O)O)CC(=O)N(CCC(C)C)CC(=O)Nc2ccccc2)c1` [AX18], the IC50 is 1400 nM.

For the molecule `COc1cccc(C(=O)N(CCC(=O)O)CC(=O)N(CCC(C)C)CC(=O)Nc2ccc(OCC(=O)Nc3ccccc3)cc2)c1` [AX19], the IC50 amounted to 6190 nM. Regarding `COc1cccc(C(=O)N(CCC(=O)O)CC(=O)N(CCC(C)C)CC(=O)Nc2ccc(CC(=O)N3CCc4ccccc43)cc2)c1` [AX21], the IC50 was 761 nM. As to `Cc1ccccc1NC(=O)Nc1ccc(NC(=O)CN(CCC(C)C)C(=O)CN(CCC(=O)O)C(=O)CN2CCCCC2)cc1` [AX22], the IC50 came to 636 nM. Next, `COc1cccc(C(=O)N(CCC(=O)O)CC(=O)N(CCC(C)C)CC(=O)Nc2ccc(C(=O)CC(=O)Nc3ccccc3Cl)cc2)c1` [AX23]: 580 nM; `CC(C)CN(CC(=O)Nc1ccc(NC(=O)Nc2ccccc2)cc1)C(=O)CN(CCC(=O)O)C(=O)Cc1ccccc1` [AX24]: 300 nM; `Cc1ccccc1NC(=O)Nc1ccc(NC(=O)CN(CCC(C)C)C(=O)CN(CCC(=O)O)C(=O)COc2ccccc2)cc1` [AX25]: 246 nM. With `COc1cccc(C(=O)N(CCC(=O)O)CC(=O)N(CCC(C)C)CC(=O)Nc2ccc(NC(=O)c3c[nH]c4ccccc34)cc2)c1` [AX26], the IC50 came out at 240 nM. Turning to `CSCCCN(CC(=O)Nc1ccc(NC(=O)Nc2ccccc2)cc1)C(=O)CN(CCC(=O)O)C(=O)c1ccccc1` [AX27], the IC50 came to 200 nM. As for `CC(C)CN(CC(=O)Nc1ccc(NC(=O)Nc2ccccc2)cc1)C(=O)CN(CCC(=O)O)C(=O)c1ccccc1` [AX28], the IC50 was found to be 150 nM. For `Cc1ccccc1NC(=O)Nc1ccc(NC(=O)CN(CCC(C)C)C(=O)CN(CCC(=O)O)C(=O)C2CCCCC2)cc1` [AX29], the IC50 amounted to 890 nM.

For `CC(C)CCN(CC(=O)Nc1ccc(NC(=O)Nc2ccccc2)cc1)C(=O)CN(CCC(=O)O)C(=O)c1ccccc1` [AX33], the IC50 is 95 nM. Under `Cc1ccccc1NC(=O)Nc1ccc(NC(=O)CN(CCC(C)C)C(=O)CN(CCC(=O)O)C(=O)COc2ccccc2)cc1` [AX34] stands 92 nM; under `Cc1ccccc1NC(=O)Nc1ccc(NC(=O)[C@@H]2CCCN2C(=O)CN(CCC(=O)O)C(=O)c2ccccc2)cc1` [AX35], 85 nM. With `Cc1ccccc1NC(=O)Nc1ccc(NC(=O)CN(CCC(C)C)C(=O)CN(CCC(=O)O)C(=O)CBr)cc1` [AX36], the IC50 was 63.2 nM. For the molecule `Cc1ccccc1NC(=O)Nc1ccc(NC(=O)CN(CCC(C)C)C(=O)CN(CCC(=O)O)C(=O)N2CCOCC2)cc1` [AX37], the IC50 was 60.5 nM.

These data come from patent US6686350B1, “Cell adhesion inhibitors” (Biogen, Inc., priority 1996, dated 2004).
